Measurements taken from patent US9205064B2, “Methods for the diagnosis of oncological disorders using epimetabolic shifters, multidimensional intracellular molecules, or environmental influencers” (Berg LLC, priority 2009, dated 2015).

Tests used:
[1] = system: ATP Citrate Lyase (ACL); experiment: Western blot of ATP citrate lyase levels in normal and cancer cells; format: cell-based, human
Procedure: The whole cell pellets were resuspended one at a time in 1 mL of C7 buffer and transferred to labeled 15 mL tubes. The samples were then sonicated in the cold room on ice using 6 sonic pulses with the setting at #14. The samples were spun for a short time to 2500 g after sonication and the samples transferred to 2 ml tubes. The pH was verified of each sample (pH should be 9.0) using the foam remaining in the […] sample tubes.
After transfer each of the blots was placed in between 2 Whatman Filter papers and dried for 15-20 minutes. After drying the blots were labeled with the date, the type of samples and either blot 1 or blot 2 using a HB pencil. The molecular weight markers were outlined with the pencil and with single lines for the blue and a doublet for the colored markers. The blots were activated with methanol for 5 seconds, washed with water for 5 minutes, and TBST for 15 minutes. The blots were blocked for 1 hour with 5% blocking reagent in TBS-T at room temperature and then washed 3 times with TBS-T (1×-15′; 2×5′ each). Blot 1 was probed with the primary antibody for IDH1 (Cell Signaling #3997) in TBST with 5% BSA (at 1:1000 dilutions) and blot 2 with the rabbit polyclonal antibody for ATP Citrate Lyase in 5% BSA (Cell Signaling #4332) at 1:1000 dilution by incubation overnight at 4 deg C. with shaking. After the overnight incubation with primary antibodies, the blots were washed 3 times with TBS-T (1×-15′; 2×5′ each) and probed with the secondary antibody (antirabbit; 1:10,000 dilution) for 1 h on the orbital tilting shaker at room temperature. After 1 h of incubation with secondary antibodies, the blots were washed 3 times with TBS-T (1×-15′; 2×5′ each) and then incubated with ECF reagent for 5 mins and then each blot scanned with 5100 Fuji Laser scanner at 25 uM resolution, 16 bit, green laser, at 400V and at 500 V.
The samples were processed and run on a 4-12% Bis-Tris Novex NuPAGE gel as described above. The gels were run, transferred and stained essentially as described above.
The Isocitrate dehydrogenase blot was stripped by incubating for 30 minutes with methanol, followed by two 10 minute washes with TBS-T, then 30 minutes of incubation with stripping buffer at 50 deg C., and followed by two washes with 100 ml or more of TBS-T for 30′ each. The blot was scanned in laser scanner to check for complete stripping. The blot was activated with methanol for 5 seconds, washed with water for 5 minutes, and TBST for 15 minutes. The blot was blocked for 1 hour with 5% blocking reagent in TBS-T at room temperature and then washed 3 times with TBS-T (1×-15′; 2×5′ each). This was then probed with the rabbit polyclonal antibody for ATP Citrate Lyase in 5% BSA (Cell Signaling #4332) at 1:1000 dilution overnight at 4 deg C. with shaking. After the overnight incubation with primary antibody for ATP Citrate Lyase, the membrane was washed 3 times with TBS-T (1×-15′; 2×5′ each) and probed with the secondary antibody (antirabbit; 1:10,000 dilution) for 1 h on the orbital tilting shaker at room temperature. After 1 h of incubation with secondary antibodies, the blot was washed 3 times with TBS-T (1×-15′; 2×5′ each) and then incubated with ECF reagent for 5 minutes and then each blot scanned with 5100 Fuji Laser scanner at 25 uM resolution, 16 bit, green laser, at 400V and at 500 V.
In this experiment (western blot experiment 3), and in all of the experiments described below in this Example (i.e., western blot experiments 4 through 9), the cells were additionally treated with either 5 mM glucose (“5G”) or 22 mM glucose (“22G”). The samples derived from the cells were processed and run on a 4-12% Bis-Tris Novex NuPAGE gel as described above. The gels were run, transferred and stained essentially as described above.
The levels of IDH1, ATP citrate lyase and actin levels were determined by probing the blots with primary antibodies for IDH1, ATP citrate lyase and actin, essentially as described above.

[2] = system: Pancreatic Cancer Cells (PaCa2); experiment: Real-time PCR Angiogenesis Array; format: cell-based; details: 100 uM Q10, various times
Procedure: Experiments were carried out essentially as described above.

[3] = system: SkBr-3 Cells; experiment: Real-time PCR Apoptosis Array; format: cell-based, human; set-up: key: fold change in mRNA level; negative = down-regulation; details: 50 um Q10, 24 hours
Procedure: (§1) RNA was quantified by measuring Optical Density at 260 nm.
Changes in mRNA levels were evaluated using real-time PCR quantification to assess mRNA levels in pre-selected subsets containing […] pathway specific targets.
For the interpretation of mRNA results, the genes that were altered in their mRNA transcription by a two-fold level were identified and evaluated. The level of gene transcription to produce mRNA only provides a rough estimate of potential changes in the level of the expressed protein. The skilled artisan will appreciate that each mRNA may have different rates at which it is degraded or its translation inefficiently, thus resulting in differing amounts of protein.
The assay method of RT-PCR was utilized to provide a measure of mRNA level changes to a total of 84 apoptotic pathway related proteins.

[4] = system: SCC cells; experiment: Real-time PCR Apoptosis Array; format: cell-based
Procedure: The control cells were untreated cells.
as §1
The genes in the Apoptosis array that appear to be regulated in SCC cells are described in Table 7. […] By 24 hours, the regulation is decreased.

## COC1=C(OC)C(=O)C(C/C=C(\C)CC/C=C(\C)CC/C=C(\C)CC/C=C(\C)CC/C=C(\C)CC/C=C(\C)CC/C=C(\C)CC/C=C(\C)CC/C=C(\C)CCC=C(C)C)=C(C)C1=O [Q10, Coenzyme Q10]
[1]; HASMC, 5g48-50
  ATP Citrate Lysase ~kd band Normalized Intensity (HASMC vs. HepG2): 23341
  ATP Citrate Lysase ~kd band Normalized Intensity (HASMC vs. PACA2): 12056
[1]; HASMC, 5g48-100
  ATP Citrate Lysase ~kd band Normalized Intensity (HASMC vs. HepG2): 25544
  ATP Citrate Lysase ~kd band Normalized Intensity (HASMC vs. PACA2): 15265
[1]; HASMC, 22G48-50
  ATP Citrate Lysase ~kd band Normalized Intensity (HASMC vs. HepG2): 21439
  ATP Citrate Lysase ~kd band Normalized Intensity (HASMC vs. PACA2): 15857
[1]; HASMC, 22G48-100
  ATP Citrate Lysase ~kd band Normalized Intensity (HASMC vs. HepG2): 19491
  ATP Citrate Lysase ~kd band Normalized Intensity (HASMC vs. PACA2): 13892
[1]; HepG2, 5g48-50
  ATP Citrate Lysase ~kd band Normalized Intensity (HASMC vs. HepG2): 24106
[1]; HepG2, 5g48-100
  ATP Citrate Lysase ~kd band Normalized Intensity (HASMC vs. HepG2): 22463
[1]; HepG2, 22G48-50
  ATP Citrate Lysase ~kd band Normalized Intensity (HASMC vs. HepG2): 31235
[1]; HepG2, 22G48-100
  ATP Citrate Lysase ~kd band Normalized Intensity (HASMC vs. HepG2): 50588
[1]; PACA2, 5g48-50
  ATP Citrate Lysase ~kd band Normalized Intensity (HASMC vs. PACA2): 8027
[1]; PACA2, 5g48-100
  ATP Citrate Lysase ~kd band Normalized Intensity (HASMC vs. PACA2): 4942
[1]; PACA2, 22G48-50
  ATP Citrate Lysase ~kd band Normalized Intensity (HASMC vs. PACA2): 9537
[1]; PACA2, 22G48-100
  ATP Citrate Lysase ~kd band Normalized Intensity (HASMC vs. PACA2): 14901
[2]
  mRNA of AKT1, ANGPTL4, ANGPEP, CCL2, CDH4, CXCL1, EDG1, EFNA3, EFNB2, EGF, FGF1, ID3, IL1B, 1L8, KDR, NRP1, PECAM1, PROK2, SERPINF1, SPHK1, STAB1, TGFB1, VEGFA and VEGFB: modulated
[3]
  APAF1 mRNA Up-Down Regulation: 2.6244
  BAX mRNA Up-Down Regulation: 3.896
  BCL2L1 mRNA Up-Down Regulation: 13.1957
  BCL2L11 mRNA Up-Down Regulation: 4.6012
  BCL2 mRNA Up-Down Regulation: 5.4717
  BIRC6 mRNA Up-Down Regulation: 4.7966
  BNIP2 mRNA Up-Down Regulation: 6.3291
  BRAF mRNA Up-Down Regulation: 4.3832
  HPRT1 mRNA Up-Down Regulation: −160.6748
  XIAP mRNA Up-Down Regulation: 4.3832
[4]; 100 μM Q10, 6 hours
  AKT1 mRNA Regulation: Down regulated at 6 hours and then
  BCL2L1 mRNA Regulation: Down regulated at 6 hours and then
  BIRC3 mRNA Regulation: Down regulated at 6 hours.
  CARD6 mRNA Regulation: Down regulated at 6 hours.
  CD27 mRNA Regulation: Down regulated at 6 hours.
  CD40 mRNA Regulation: Down regulated at 6 hours.
  CD70 mRNA Regulation: Down regulated at 6 hours.
  TNFRSF9 mRNA Regulation: Down regulated at 6 hours.
  TNFRSF21 mRNA Regulation: Down regulated at 6 hours.
  TNFRSF25 mRNA Regulation: Down regulated at 6 hours and then
  TP73 mRNA Regulation: Down regulated at 6 hours and then
[4]; 100 μM Q10, 24 hours
  AKT1 mRNA Regulation: up regulated at 24 hours.
  BAG4 mRNA Regulation: Up regulated at 24 hours.
  BAX mRNA Regulation: Up regulated at 24 hours.
  BCL2L1 mRNA Regulation: up regulated at 24 hours.
  BCL2 mRNA Regulation: Up regulated at 24 hours.
  BNIP3 mRNA Regulation: Down regulated at 24 hours.
  CASP6 mRNA Regulation: Up regulated at 24 hours.
  CASP7 mRNA Regulation: Up regulated at 24 hours.
  FADD mRNA Regulation: Up regulated at 24 hours.
  GADD45A mRNA Regulation: Up regulated at 24 hours.
  HRK mRNA Regulation: Up regulated at 24 hours.
  TNFRSF25 mRNA Regulation: up regulated at 24 hours.
  TNFSF10 mRNA Regulation: Up regulated at 24 hours.
  TP53 mRNA Regulation: Up regulated at 24 hours.
  TP73 mRNA Regulation: up regulated at 24 hours.
  TRAF2 mRNA Regulation: Up regulated at 24 hours.
